Data set [1] can be described thus: half-life in animal (dog) and in man. The conditions noted are these: in vivo.
Data set [2] relates to hepatic glutatione-S-transferase. As to the kind of experiment: activity of hepatic glutathione-S-transferase.
A further data set relates to Trichomonas Vaginalis. It is filed as in vivo, humans. As to the method: The clinical investigation involved 42 patients, aged from 22 to 55, affected by vaginitis induced by Trichomonas Vaginalis.
The diagnosis was determined through bacterioscopic, cultural and May-Grunwald Giemsa examinations, which were repeated 3 days after the end of the treatment. The 42 Patients were splitted into 6 groups of 7 patients each.

A short description of data set [3]: solubility in solvents and water. The format is physicochemical. As to the method: According to the present invention there is provided a compound of formula (I) in which R1 is -OCH3 and R is CH3, which is a crystalline yellow compound, which decomposes upon heating to 170°C, is soluble (1 : 100) in methanol and (1 : 30) in dimethylformamide, but insoluble in water.

Where [4] appears, read: treated orally (1st, 2nd, 3rd, 4th groups).

Take `Cc1ncc([N+](=O)[O-])n1CCO` [metronidazole, 1-(2-hydroxyethyl)-2-methyl-5-nitro-imidazole]: the half-life (in general, the time needed for the level to fall by half in the phase considered) in data set [1] was 438 min. In addition, the “activity of the hepatic glutatione-S-transferase” value in data set [2] was “does not exert this action”.

`COc1ccc(OC(=O)CCC(=O)Nc2nccc(C=Cc3ncc([N+](=O)[O-])n3C)n2)c(C(C)(C)C)c1` [p-methoxy-o-tert-butyl-phenol ester of 5-nitro-imidazolyl-2-ethenyl-(2-amino-pyrimidyl)-N-succinic acid]: the complete recovery in the data set with Trichomonas Vaginalis (5th group, treated only locally) was 85%. Moreover, the “Trichomonas vaqinalis disappeared, number of patients” value in the data set with Trichomonas Vaginalis (5th group, treated only locally, 3 vaginal tablets of 200 mg per day for 5 days) was 6 out of 7 patients. The compound further showed a positive results with Trichomonas Vaginalis (6th group, treated both orally and locally) of 100%. In addition, the “activity against Trichomoniasis” value with Trichomonas Vaginalis (42 patients) is “highly active”. In addition, the tolerance in patients entry in the data set on Trichomonas Vaginalis (human, in vivo, po) was “well tolerated”. For the same compound, in the data set with Trichomonas Vaginalis (setting [4]), the complete success is 98% and the “complete success, number of patients” value is on record as 25 patiens out of 28. In addition, the solubility in water result in data set [3] is on record as “insoluble”.

The record behind these values is patent EP0045990A1, “Novel antibacterial and antiprotozoal derivatives, a process for the preparation thereof, and related pharmaceutical compositions” (Farmatis S.r.l., priority 1980, dated 1982).
